According to patent US9556130B2, “4-oxo-3,4-dihydro-1,2,3-benzotriazine modulators of GPR139” (Takeda Pharmaceutical Company Limited, priority 2014, dated 2017):

Columns and labels:
[1] = target: T1, human GPR139 receptor (Homo sapiens (Human), UniProt Q6DWJ6); test: Activation of Calcium Signaling of GPR139 In Vitro Assay; assay type: cell-based; conditions: stably transfected CHO-TRex cells, Calcium 5 dye, FLIPR Tetra;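 further: receptor expression induced with doxycycline, calcium fluorescence read continuously for one minute after compound addition, EC50 taken from a four-parameter logistic fit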
T1 sequence (Q6DWJ6 whole entry): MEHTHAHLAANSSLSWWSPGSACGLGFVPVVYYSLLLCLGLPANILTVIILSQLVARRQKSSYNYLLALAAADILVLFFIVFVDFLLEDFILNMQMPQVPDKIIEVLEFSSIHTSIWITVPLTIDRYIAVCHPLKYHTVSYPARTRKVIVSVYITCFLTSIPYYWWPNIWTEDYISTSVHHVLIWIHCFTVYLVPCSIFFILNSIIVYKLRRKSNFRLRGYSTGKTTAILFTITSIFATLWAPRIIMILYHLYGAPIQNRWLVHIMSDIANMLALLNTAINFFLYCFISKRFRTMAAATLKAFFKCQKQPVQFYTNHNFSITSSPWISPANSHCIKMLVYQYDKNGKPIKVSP

[2] = target: T1, human GPR139 receptor; test: GPR139 Competition Binding; conditions: stably transfected CHO-TRex membranes, 1 nM 3H radioligand; read-out: GPR139 Inhibition (Ki (nM));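 further: receptor expression induced with doxycycline before membrane preparation, bound radioactivity counted by scintillation, Ki fitted with a four-parameter logistic model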
[3] = test system: c-Fos immunoreactivity in the dorsal medial habenula; test: cFos Staining; assay type: in vivo, C57/B16 mice; conditions: oral
Description: Methods: After dosing C57/B16 mice for various time courses their brains were prepared for immunohistochemistry. […] Brains are extracted and placed in 4% paraformaldehyde for 3 hours, changed into 20% sucrose/PBS solution to avoid freezing artifacts, and frozen with dry ice. Frozen brain sections are obtained with sliding microtome at 20 um and washed in PBS (2 times for 10 minutes each). Endogenous peroxidase enzyme is blocked with 0.3% H2O2 solution in water for 10 minutes. Sections are rinsed in PBS (3 times for 10 minutes each) and incubated in primary antibody against cFos (Santa Cruz SC-42) at a dilution of 1:10,000 at 4° C. overnight in PBS+0.3% triton and 1% bovine serum albumin. Sections are subsequently rinsed in PBS (3 times for 10 minutes each) and incubated in secondary antibody: goat against rabbit-biotinylated antibody, at a dilution of 1:200 for 1 hour at room temperature in PBS+0.3% triton and 1% bovine serum albumin. Sections are rinsed in PBS (3 times for 10 minutes each) and incubated in ABC mix in PBS; ABC Elite Kit from Vector (PK-1000) for 1 hour at room temperature. Next, the sections are rinsed in PBS (3 times for 10 minutes each) and then in 0.1 M sodium acetate (3 times for 10 minutes each). Reaction is visualized with standard diaminobenzydine procedures: 50 mL of 0.1M sodium acetate containing 20 mg ammonium chloride, 20 mg, diaminobenzydine, 80 mg glucose and 10 mL of glucose oxidase. React for 10 minutes then the reaction is stopped with PBS rinses (3 times for 10 minutes each). cFos cells are then counted.

Cc1ccc([C@H](C)NC(=O)Cn2nnc3c(C)cc(C)cc3c2=O)cc1 [Example 41, (S)-2-(6,8-dimethyl-4-oxobenzo[d][1,2,3]triazin-3(4H)-yl)-N-(1-p-tolylethyl)acetamide]
EC50 [1]: 7 nM
Ki [2]: 10 nM

Cc1ccc([C@H](C)NC(=O)Cn2nnc3ccc(F)cc3c2=O)c(C)c1 [Example 52, (S)—N-(1-(2,4-dimethylphenyl)ethyl)-2-(6-fluoro-4-oxobenzo[d][1,2,3]triazin-3(4H)-yl)acetamide]
EC50 [1]: 24 nM
Ki [2]: 39 nM

C[C@H](NC(=O)Cn1nnc2ccc(F)cc2c1=O)c1ccc(OC(F)F)cc1 [Example 68, (S)—N-(1-(4-(difluoromethoxy)phenyl)ethyl)-2-(6-fluoro-4-oxobenzo[d][1,2,3]triazin-3(4H)-yl)acetamide]
EC50 [1]: 10 nM
Ki [2]: 282 nM

COc1ccc([C@H](C)NC(=O)Cn2nnc3c(C)cccc3c2=O)cc1 [Example 25, (S)—N-(1-(4-methoxyphenyl)ethyl)-2-(8-methyl-4-oxobenzo[d][1,2,3]triazin-3 (4H)-yl)acetamide]
EC50 [1]: 8 nM
Ki [2]: 526 nM

COc1ccc2c(=O)n(CC(=O)N[C@@H](C)c3ccc(OC(F)(F)F)cc3)nnc2c1 [Example 56, (S)-2-(7-methoxy-4-oxobenzo[d][1,2,3]triazin-3(4H)-yl)-N-(1-(4-(trifluoromethoxy)phenyl)ethyl)acetamide]
EC50 [1]: 37 nM
Ki [2]: 218 nM

C[C@H](NC(=O)Cn1nnc2ccc(F)cc2c1=O)c1ccc(OC(F)(F)F)cc1 [Example 55, (S)-2-(6-fluoro-4-oxobenzo[d][1,2,3]triazin-3(4H)-yl)-N-(1-(4-(trifluoromethoxy)phenyl)ethyl)acetamide]
EC50 [1]: 38 nM
Ki [2]: 42 nM

COc1ccc([C@H](C)NC(=O)Cn2nnc3cccc(C)c3c2=O)cc1 [Example 40, (S)—N-(1-(4-methoxyphenyl)ethyl)-2-(5-methyl-4-oxobenzo[d][1,2,3]triazin-3(4H)-yl)acetamide]
EC50 [1]: 9 nM
Ki [2]: 533 nM

C[C@H](NC(=O)Cn1nnc2ccccc2c1=O)c1ccc(OC(F)(F)F)cc1 [Example 2, (S)-2-(4-oxobenzo[d][1,2,3]triazin-3(4H)-yl)-N-(1-(4-(trifluoromethoxy)phenyl)ethyl)acetamide]
cFos cell count, Mean ([3]; desensitization experiment, 0.1 mg/kg 1d): 1486
cFos cell count, Mean ([3]; desensitization experiment, 0.1 mg/kg 5d): 1928
cFos cell count, Mean ([3]; desensitization experiment, 0.1 mg/kg 10d): 1684
cFos cell count, Mean ([3]; dose response curve experiment, 0.01 mg/kg): 1376
cFos cell count, Mean ([3]; dose response curve experiment, 0.03 mg/kg): 986.3
cFos cell count, Mean ([3]; dose response curve experiment, 0.1 mg/kg): 1381
cFos cell count, Mean ([3]; dose response curve experiment, 0.3 mg/kg): 1408
cFos cell count, Mean ([3]; dose response curve experiment, 1 mg/kg): 1368
cFos cell count, Mean ([3]; time course experiment, 0.1 mg/kg 1 hr): 787.7
cFos cell count, Mean ([3]; time course experiment, 0.3 mg/kg 1 hr): 1343
cFos cell count, Mean ([3]; time course experiment, 0.3 mg/kg 2 hr): 1400
cFos cell count, Mean ([3]; time course experiment, 0.3 mg/kg 4 hr): 2170
cFos cell count, Mean ([3]; time course experiment, 3 mg/kg 1 hr): 2365

COc1ccc([C@H](C)NC(=O)Cn2nnc3c(Cl)cccc3c2=O)cc1 [Example 23, (S)-2-(8-chloro-4-oxobenzo[d][1,2,3]triazin-3(4H)-yl)-N-(1-(4-methoxyphenyl)ethyl)acetamide]
EC50 [1]: 13 nM
Ki [2]: 842 nM

COc1ccc2nnn(CC(=O)N[C@@H](C)c3ccc(OC(F)(F)F)cc3)c(=O)c2c1 [Example 57, (S)-2-(6-methoxy-4-oxobenzo[d][1,2,3]triazin-3(4H)-yl)-N-(1-(4-(trifluoromethoxy)phenyl)ethyl)acetamide]
EC50 [1]: 43 nM
Ki [2]: 128 nM

C[C@H](NC(=O)Cn1nnc2ccc(F)cc2c1=O)c1ccc(C(F)(F)F)cc1 [Example 64, (S)-2-(6-fluoro-4-oxobenzo[d][1,2,3]triazin-3(4H)-yl)-N-(1-(4-(trifluoromethyl)phenyl)ethyl)acetamide]
EC50 [1]: 13 nM
Ki [2]: 106 nM

COc1cccc2nnn(CC(=O)N[C@@H](C)c3ccc(C)cc3)c(=O)c12 [Example 3, (S)-2-(5-methoxy-4-oxobenzo[d][1,2,3]triazin-3(4H)-yl)-N-(1-p-tolylethyl)acetamide]
cFos cell count, Mean ([3]; dose-response and time course experiment, 0.03 mg/kg 1 hr): 1628
cFos cell count, Mean ([3]; dose-response and time course experiment, 0.1 mg/kg 1 hr): 2243
cFos cell count, Mean ([3]; dose-response and time course experiment, 0.3 mg/kg 1 hr): 2458
cFos cell count, Mean ([3]; dose-response and time course experiment, 0.3 mg/kg 2 hr): 2777
cFos cell count, Mean ([3]; dose-response and time course experiment, 0.3 mg/kg 4 hr): 865
cFos cell count, Mean ([3]; dose-response and time course experiment, 3 mg/kg 1 hr): 2023

COc1cccc2c(=O)n(CC(=O)N[C@@H](C)c3ccc(OC(F)(F)F)cc3)nnc12 [Example 62, (S)-2-(8-methoxy-4-oxobenzo[d][1,2,3]triazin-3(4H)-yl)-N-(1-(4-(trifluoromethoxy)phenyl)ethyl)acetamide]
EC50 [1]: 25 nM
Ki [2]: 240 nM
